Data published in the supplement of paper PMC10307832.

Columns and labels:
Test in all cases: relative viability (nuclei count vs DMSO), 5 days (fraction); higher = more cells survive
[1] = system: LCLC-97TM1
How it was run: (§1)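 Relative viability is defined as nuclei in treated wells over nuclei in vehicle wells. Duplicate plates were run and medians reported. Lung cancer cell lines in 1536-well plates were dosed by pin tool one day after seeding, with one drug or with a fixed anchor-drug dose plus five library-drug doses (not always all listed) in √10 steps, and nuclei were counted after 5 days.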

[2] = system: HCC-366
How it was run: as §1

[3] = system: EBC-1
How it was run: as §1

[4] = system: NCI-H2009
How it was run: as §1

[5] = system: NCI-H650
How it was run: as §1

[6] = system: RERF-LC-KJ
How it was run: as §1

[7] = system: HCC-44
How it was run: as §1

[8] = system: COR-L23
How it was run: as §1

[9] = system: NCI-H460
How it was run: as §1

[10] = system: SW 1573
How it was run: as §1

[11] = system: NCI-H2126
How it was run: as §1

[12] = system: LOU-NH91
How it was run: as §1

[13] = system: NCI-H1993
How it was run: as §1

[14] = system: HARA
How it was run: as §1

[15] = system: 201T
How it was run: as §1

[16] = system: NCI-H441
How it was run: as §1

[17] = system: HCC-78
How it was run: as §1

[18] = system: A-427
How it was run: as §1

[19] = system: LCLC-103H
How it was run: as §1

[20] = system: NCI-H1734
How it was run: as §1

[21] = system: NCI-H2023
How it was run: as §1

[22] = system: HCC-15
How it was run: as §1

CCCCCCCCCCCC1=C(O)C(=O)C=C(O)C1=O [Embelin] + Cc1nc(NC(=O)N2CCC[C@H]2C(N)=O)sc1-c1ccnc(C(C)(C)C(F)(F)F)c1 [Alpelisib] (partner 2 µM)
relative viability ([1]; first compound 0.8 µM): 0.291 | relative viability ([1]; first compound 2.53 µM): 0.283 | relative viability ([1]; first compound 8 µM): 0.223 | relative viability ([2]; first compound 0.08 µM): 0.411 | relative viability ([2]; first compound 0.8 µM): 0.418 | relative viability ([2]; first compound 2.53 µM): 0.412 | relative viability ([2]; first compound 8 µM): 0.427 | relative viability ([3]; first compound 0.08 µM): 0.93 | relative viability ([3]; first compound 0.8 µM): 1 | relative viability ([3]; first compound 2.53 µM): 0.914 | relative viability ([3]; first compound 8 µM): 0.732 | relative viability ([4]; first compound 0.08 µM): 1.26 | relative viability ([4]; first compound 0.8 µM): 1.27 | relative viability ([4]; first compound 2.53 µM): 1.18 | relative viability ([4]; first compound 8 µM): 1.16 | relative viability ([5]; first compound 0.08 µM): 1.14 | relative viability ([5]; first compound 0.8 µM): 1.26 | relative viability ([5]; first compound 2.53 µM): 1.02 | relative viability ([5]; first compound 8 µM): 1.06 | relative viability ([6]; first compound 0.08 µM): 0.856 | relative viability ([6]; first compound 0.8 µM): 0.815 | relative viability ([6]; first compound 2.53 µM): 1.07 | relative viability ([6]; first compound 8 µM): 0.865 | relative viability ([7]; first compound 0.08 µM): 0.781 | relative viability ([7]; first compound 0.8 µM): 0.767 | relative viability ([7]; first compound 2.53 µM): 0.895 | relative viability ([7]; first compound 8 µM): 1 | relative viability ([8]; first compound 0.08 µM): 0.872 | relative viability ([8]; first compound 0.8 µM): 1.11 | relative viability ([8]; first compound 2.53 µM): 0.874 | relative viability ([8]; first compound 8 µM): 0.777 | relative viability ([9]; first compound 0.08 µM): 0.448 | relative viability ([9]; first compound 0.8 µM): 0.574 | relative viability ([9]; first compound 2.53 µM): 0.698 | relative viability ([9]; first compound 8 µM): 0.517 | relative viability ([10]; first compound 0.08 µM): 0.815 | relative viability ([10]; first compound 0.8 µM): 0.966 | relative viability ([10]; first compound 2.53 µM): 0.786 | relative viability ([10]; first compound 8 µM): 0.804 | relative viability ([11]; first compound 0.08 µM): 0.792 | relative viability ([11]; first compound 0.8 µM): 0.743 | relative viability ([11]; first compound 2.53 µM): 0.799 | relative viability ([11]; first compound 8 µM): 0.748 | relative viability ([12]; first compound 0.08 µM): 0.771 | relative viability ([12]; first compound 0.8 µM): 0.904 | relative viability ([12]; first compound 2.53 µM): 0.862 | relative viability ([12]; first compound 8 µM): 0.709 | relative viability ([13]; first compound 0.08 µM): 0.753 | relative viability ([13]; first compound 0.8 µM): 0.755 | relative viability ([13]; first compound 2.53 µM): 0.649 | relative viability ([13]; first compound 8 µM): 0.658 | relative viability ([14]; first compound 0.08 µM): 0.848 | relative viability ([14]; first compound 0.8 µM): 0.887 | relative viability ([14]; first compound 2.53 µM): 0.989 | relative viability ([14]; first compound 8 µM): 0.702 | relative viability ([15]; first compound 0.08 µM): 0.979 | relative viability ([15]; first compound 0.8 µM): 1.03 | relative viability ([15]; first compound 2.53 µM): 0.981 | relative viability ([15]; first compound 8 µM): 0.971 | relative viability ([16]; first compound 0.08 µM): 0.85 | relative viability ([16]; first compound 2.53 µM): 0.933 | relative viability ([16]; first compound 8 µM): 0.847 | relative viability ([17]; first compound 0.08 µM): 0.329 | relative viability ([17]; first compound 0.8 µM): 0.392 | relative viability ([17]; first compound 2.53 µM): 0.388 | relative viability ([17]; first compound 8 µM): 0.307 | relative viability ([18]; first compound 0.08 µM): 1.1 | relative viability ([18]; first compound 0.8 µM): 1.13 | relative viability ([18]; first compound 2.53 µM): 1.12 | relative viability ([18]; first compound 8 µM): 1.07 | relative viability ([19]; first compound 0.08 µM): 1.07 | relative viability ([19]; first compound 0.8 µM): 1.02 | relative viability ([19]; first compound 2.53 µM): 1.02 | relative viability ([19]; first compound 8 µM): 0.866 | relative viability ([20]; first compound 0.08 µM): 0.758 | relative viability ([20]; first compound 0.8 µM): 0.726 | relative viability ([20]; first compound 2.53 µM): 0.745 | relative viability ([20]; first compound 8 µM): 0.741 | relative viability ([21]; first compound 0.08 µM): 0.708 | relative viability ([21]; first compound 0.8 µM): 0.532 | relative viability ([21]; first compound 2.53 µM): 0.651 | relative viability ([21]; first compound 8 µM): 0.639 | relative viability ([22]; first compound 0.08 µM): 0.882 | relative viability ([22]; first compound 0.8 µM): 0.864 | relative viability ([22]; first compound 2.53 µM): 0.957 | relative viability ([22]; first compound 8 µM): 0.995
